Experimental data from patent US20100221821A1, “METHODS AND COMPOSITIONS RELATED TO RIBOSWITCHES THAT CONTROL ALTERNATIVE SPLICING AND RNA PROCESSING” (YALE UNIVERSITY, priority 2007, published 2010).
Like-named read-outs stand apart in the source and are kept apart here.

Key:
[1] = test system: altered TPP aptamer in THIC-III RNA from A. thaliana; assay: In-line probing of TPP binding by the spliced (altered) TPP aptamer of THIC type III RNA; set-up: species or system Arabidopsis thaliana
Description: (B) In-line probing analysis of TPP binding by the spliced aptamer depicted in (A). Lanes include RNAs loaded after no reaction (NR), after partial digestion with RNase T1 (T1), or after partial digestion with alkali (^−OH). Sites 1 and 2 were quantified to establish the KD as shown in (C). (C) Plot indicating the normalized fraction of RNA spontaneously cleaved versus the concentration of TPP for sites 1 and 2 in (B).
In-line probing (Soukup and Breaker, 1999) was used to determine whether this altered aptamer retains TPP binding activity.
In-line probing assays were conducted essentially as described previously (Sudarsan et al., 2003; Winkler et al., 2002). […] For in-line probing analysis, the labeled RNA was incubated at room temperature for 40 hours in 50 mM Tris-HCl (pH 8.3 at 23° C.), 20 mM MgCl2, and 100 mM KCl in the absence or presence of varying concentrations of TPP. Cleavage products were resolved by denaturing 10% PAGE, visualized by PhosphorImager (GE Healthcare), and quantitated using ImageQuant software. The apparent KD value, reflecting the concentration of TPP needed to half-maximally modulate RNA structure, was determined by plotting the normalized fraction of RNA cleaved versus the logarithm of TPP concentration.

[2] = test system: TPP aptamer with 5' splice site region of THIC mRNA from A. thaliana; assay: In-line probing of TPP aptamer with 5' flank (nts -14-261 relative to 5' splice site); assay type: binding, Arabidopsis thaliana; conditions: 10 μM TPP
Experimental: (A) TPP causes changes in RNA structure near to the 5′ splice site, which is important for the formation of THIC type III RNA. For in-line probing, a 5′ ^32P-labelled RNA starting 14 nts upstream of the 5′ splice site (+1) and expanding to the 3′ end of the TPP aptamer (nucleotides-14-261) from A. thaliana was incubated in the absence (−) or presence (+) of 10 μM TPP and the resulting spontaneous cleavage products were separated by polyacrylamide gel electrophoresis. Markers are RNAs partially digested with RNase T1 (T1) or alkali (^−OH). The graph depicts the relative band intensities in the lanes indicated. (B) Base-pairing potential between the 5′ splice site region and the P4-P5 stems of the TPP aptamer (SEQ ID NOs:34-47; complementary nucleotides are shaded). Stretches of complementary nucleotides are also present in all other plant THIC mRNA sequences available. […]
In-line probing assays were conducted essentially as described previously (Sudarsan et al., 2003; Winkler et al., 2002). […] Cleavage products were resolved by denaturing 10% PAGE, visualized by PhosphorImager (GE Healthcare), and quantitated using ImageQuant software. The apparent KD value, reflecting the concentration of TPP needed to half-maximally modulate RNA structure, was determined by plotting the normalized fraction of RNA cleaved versus the logarithm of TPP concentration.

[3] = molecular target: full-length TPP aptamer from A. thaliana; conditions: read-out: apparent dissociation constant (KD) of full-length aptamer for TPP; cited from earlier work
THIC transcripts [4] = test system: THIC transcripts
Experimental: (§1) (A) qRT-PCR analysis was conducted on THIC transcripts from A. thaliana seedlings grown for 14 days on medium supplemented with 0, 0.1, and 1 mM thiamin. Total THIC transcripts and separately types I, II and III RNAs were detected using different primer combinations. cDNAs were generated using a polyT primer or random hexamers for detection of type I RNAs. Expression was normalized for each primer combination to the value measured using medium with no thiamin supplementation (open bars). Values are averages from three independent experiments and error bars represent standard deviation. (B) Northern blot analysis of THIC transcripts from the same samples described in (A). 20 μg total RNA was loaded per lane and analyzed using probes binding to the coding region of THIC, the extended 3′ UTR of types I and III RNAs, or the control transcript EIF4A1. […] (C) qRT-PCR analysis of the time-dependent effects of thiamin treatment on THIC transcripts from A. thaliana. Seedlings were grown for 14 days on thiamin free medium and subsequently sprayed with 50 μM thiamin and 0.25 mg ml^−1 Tween 80. Control seedlings were treated with a solution containing only Tween 80. Samples were collected after 4 h and 26 h and subjected to qRT-PCR analysis. Amounts of THIC transcripts were analyzed from cDNAs generated with polyT primer and normalized to the values of the control samples without application of thiamin (open bars). Values are averages from three independent experiments and error bars represent standard deviation. (D) Relative changes of the levels of THIC transcript types in wild-type (WT) and thiamin pyrophosphokinase double knockout (TPK-KO) A. thaliana plants. Seedlings were grown for 12 days on thiamin free medium and amounts of THIC transcript types were analyzed by qRT-PCR. Data were normalized to the values for the WT samples and reflect averages from three replicates, with error bars representing standard deviation.
(A) qRT-PCR analysis of total THIC transcripts from plants incubated for 48 h under continuous light. Plants were grown for 11 days in light/dark cycles (16/8 h) on medium without thiamin or medium supplemented with 100 μM thiamin. On the morning of the 12th day, plants were transferred to continuous light and samples were taken every 3 hours. Expression was normalized to the value of the sample at time point 0 from plants grown on thiamin free medium. Error bars represent standard deviation of triplicate qRT-PCR analyses. […] (B) qRT-PCR analysis of THIC type III RNAs. Plant material and data normalization are as described for (A).
The amount of THIC transcripts was established by using quantitative RT-PCR (qRT-PCR) to address whether transcript levels respond to increased thiamin concentrations. A. thaliana seedlings were supplemented with various amounts of thiamin and the different THIC transcript types were detected using specific primer combinations. The primer combination amplifying THIC-II also can bind to a subset of THIC-I RNAs that have undergone splicing of the first 3′ UTR intron.
Arabidopsis thaliana ecotype Columbia-0 plants were grown with soil at 23° C. in a growth chamber under 16/8 h (light/dark) photoperiod with 60% humidity unless otherwise stated. For seedling experiments, plants were grown on basal MS medium (Murashige and Skoog, 1962) supplemented with 2% sucrose and varying concentrations of thiamin and under continuous light unless otherwise specified. N. benthamiana plants for leaf infiltration assays were grown on soil for 3 to 5 weeks under continuous light.

THIC transcripts [5] = conditions: seedlings on thiamin-supplemented medium
Experimental: as §1

[6] = test system: THIC TPP riboswitch (3' region of AtTHIC fused to EGFP)
Experimental: (A) Leaves from stably transformed A. thaliana lines expressing a reporter fusion of the complete 3′ region of AtTHIC fused to the 3′ end of EGFP were abscised and incubated with the petioles in water or in water supplemented with 0.02% thiamin. EGFP fluorescence was assessed at 0 h, 48 h, and 72 h after onset of treatment. One representative set of data from three repeats is shown, and the numbers identify different leaves from one transgenic line. (B) Quantitation of EGFP fluorescence of leaves depicted in (A) at three time points. The data represent average fluorescence intensity and standard deviation for each leaf. The plot also depicts average background fluorescence of WT leaves. (C) qRT-PCR analysis of total EGFP and THIC transcripts from leaves incubated for 72 h in water or 0.02% thiamin. Transcript amounts were standardized to an internal reference transcript and normalized to transcript abundance in water treated samples. Values are averages from four independent experiments using different transgenic lines and error bars represent standard deviation. (D,E) RT-PCR analysis of different 3′ UTRs of EGFP and THIC transcript types from A. thaliana reporter transformants grown in the absence of exogenous thiamin. For cDNA generation, a polyT primer, random hexamers or two different gene specific primers (binding either 221 or 882 nts downstream of the end of the aptamer) were used as indicated. The forward primers were specific for the end of the last exon of the coding region of EGFP (left) or THIC (right), whereas the reverse primer was either a polyT primer (D) or homologous to a region 221 nts downstream of the end of the aptamer (E). RT-PCR products were separated and visualized as described in the description of FIG. 2. M designates the marker lanes containing DNAs of 100 base-pair increments. No RT indicates a control reaction using the RNA without reverse transcription as a template source. I-1 and I-2 represent type I RNAs with the upstream intron following the stop codon unspliced or spliced, respectively.
(A) Secondary structure model and sequence of the WT TPP aptamer from A. thaliana genomic sequence and located in the 3′ region of THIC that was fused to EGFP (SEQ ID NOs: 32 and 33). […] (B) Quantitation of EGFP fluorescence in leaves from A. thaliana transformants expressing reporter constructs containing the WT aptamer sequence or mutated versions M2, M3 and M4. Leaves were excised and incubated with their petioles in water or 0.02% thiamin for 72 h before fluorescence analysis. Values are averages from at least three independent experiments using different transgenic lines. Error bars represent standard deviation. (C) qRT-PCR analyses of EGFP and THIC transcript amounts in A. thaliana transformants described in (B). Transcript amounts (standardized using a reference transcript) were normalized to transcript abundance in water treated samples. Values are averages from two to four independent experiments using different transgenic lines. Error bars represent standard deviation. (D,E) RT-PCR analyses of 3′ UTRs of EGFP and THIC transcripts from A. thaliana transformants with mutations M2 or M3. RT-PCR analyses were performed as described in the description of FIGS. 5D and 5E. Forward primers were homologous to the end of the last exon of the coding region of EGFP or THIC, and the reverse primer was a polyT primer (D) or complementary to a region 221 nts downstream of the end of the aptamer (E). Kbp designates kilobase pairs.

[7] = test system: THIC promoter from A. thaliana; conditions: 100 μM thiamin, 9 day old seedlings
Description: A construct consisting of a 1595 by fragment of the THIC promoter from A. thaliana was fused to the reporter gene β-glucuronidase (GUS) and transformed into A. thaliana. […] Data are mean values from three different transgenic lines and from three independent experiments. Error bars represent standard deviation.

[8] = 26 h after spraying with 50 μM thiamin
[9] = four hours after spraying seedlings with 50 μM thiamin

Structure (SMILES): Cc1ncc(C[n+]2csc(CCO[P@](=O)(O)OP(=O)(O)O)c2C)c(N)n1 [TPP, thiamine pyrophosphate]
- loss in ligand-binding affinity versus full-length aptamer ([1]; altered aptamer vs full-length aptamer): more than three orders of magnitude
- Kd ([1]; in-line probing, spliced aptamer of THIC-III, read-out: apparent KD of the altered aptamer for TPP): ~60 µM
- TPP binding by mutant M1 of the altered aptamer ([1]; mutation M1 in type III construct): completely abolish TPP binding
- TPP binding by mutant M2 of the altered aptamer ([1]; mutation M2 in type III construct): completely abolish TPP binding
- structural modulation of nucleotides near the 5' splice site [2]: increase in structural flexibility
- Kd [3]: ~0.05 µM

Structure (SMILES): Cc1ncc(C[n+]2csc(CCO)c2C)c(N)n1 [thiamin]
- binding to the altered aptamer ([1]; data not shown): does not bind
- THIC-II level (THIC transcripts [4]; [8]): decreased even further
- total THIC RNA level (THIC transcripts [4]; [8]): decreased even further
- increase in THIC-III (THIC transcripts [4]; after spraying with 50 μM thiamin, early phase (4 h)): more pronounced in the early phase
- THIC-II amount relative to absence of added thiamin (THIC transcripts [4]; [9]): 50%
- total THIC RNA amount relative to absence of added thiamin (THIC transcripts [4]; [9]): 50%
- THIC-I transcripts copy number (THIC transcripts [4]; medium containing 1 mM thiamin): little or no change
- THIC-II transcripts (THIC transcripts [4]; medium containing 1 mM thiamin): equivalent reduction
- THIC-III transcripts copy number (THIC transcripts [4]; medium containing 1 mM thiamin): little or no change
- circadian rhythm of THIC expression (THIC transcripts [4]; medium supplemented with 100 μM thiamin, continuous light 48 h): not affected
- total amount of THIC transcripts relative to seedlings grown without thiamin supplementation (THIC transcripts [4]; seedlings grown on medium containing 1 mM thiamin, 14 days): approximately 20%
- THIC-I RNA levels (Northern blot) (THIC transcripts [5]): remain relatively unchanged
- THIC-III RNA levels (Northern blot) (THIC transcripts [5]): remain relatively unchanged
- THIC-II levels (Northern blot) (THIC transcripts [5]; same samples as FIG. 3A): decrease
- amount of endogenous THIC transcripts relative to control levels ([6]; 0.02% thiamin, 72 h, qRT-PCR): approximately 20%
- amount of EGFP transcripts relative to control levels ([6]; WT construct, 0.02% thiamin, 72 h, qRT-PCR): approximately 20%
- EGFP fluorescence in leaves ([6]; WT construct, 0.02% thiamin, rosette stage leaves): decreased
- responsiveness of reporter to thiamin application compared to WT construct ([6]; mutant aptamer M2, 0.02% thiamin 72 h): reduced
- responsiveness of reporter to thiamin application compared to WT construct ([6]; mutant aptamer M3, 0.02% thiamin 72 h): complete loss
- responsiveness of reporter to thiamin application compared to WT construct ([6]; mutant aptamer M4, 0.02% thiamin 72 h): complete loss
- expression of reporter gene (GUS) driven by the THIC promoter [7]: not altered
